Publication PMC4077824, “Conserved Prosegment Residues Stabilize a Late-Stage Folding Transition State of Pepsin Independently of Ground States” (PLoS ONE, 2014)
“And” between values parts separate entries of the source, which are not always exact repeats. Equal entries are not always repeated. Where no end group is shown, it is not given here.

Legend:
refolded pepsin (Rp) [1] = molecular target: T1, refolded pepsin (Rp) (Sus scrofa, UniProt P00791); test: PS-catalyzed folding of Rp to Np (recovery of Np activity); assay type: biochemical, porcine; conditions: PS with Rp, without 100 mM NaCl, timescale of 0–2 hours; data not shown, and [7]
T1 construct: Only the R13 and K36 side-chains of the PS form hydrogen bonds with the mature pepsin domain; purchased Sigma (St. Louis, MO, USA)
T1 sequence (P00791 60-385): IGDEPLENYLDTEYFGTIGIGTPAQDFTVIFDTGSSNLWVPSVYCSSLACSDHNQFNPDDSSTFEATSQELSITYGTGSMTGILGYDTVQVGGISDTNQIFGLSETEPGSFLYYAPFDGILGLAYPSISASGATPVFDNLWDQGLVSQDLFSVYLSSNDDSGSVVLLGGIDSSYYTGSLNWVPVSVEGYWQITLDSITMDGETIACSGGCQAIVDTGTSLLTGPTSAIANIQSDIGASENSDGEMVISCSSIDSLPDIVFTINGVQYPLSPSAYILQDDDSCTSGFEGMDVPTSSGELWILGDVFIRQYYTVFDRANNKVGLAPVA

[2] = tested on: pepsin (PS-Rp, PS-TS, PS-Np complexes); conditions: ref [7]; cited from earlier work
Text: It seems likely that the PS has achieved this higher affinity for the TS via a concerted optimization of side-chain packing, hydrogen bonding and electrostatics, as evidenced by polar, hydrophobic and charged groups selectively stabilizing the TS ( Fig 3A ). Furthermore, this concerted optimization likely involves both non-native and strengthened native contacts, given the range of interactions involved. In the native fold [ ...

[3] = CD spectroscopy of prosegment; assay type: physicochemical; conditions: PSwt 0.1 mg/ml, pure water or 20 mM acetic acid/NaOH pH 5.3 with and without 100 mM NaCl
Protocol: CD data were collected using a Jasco J-810 spectropolarimeter (Jasco corp., Tokyo, Japan), over a wavelength range of 250 nm to 190 nm with a 1 nm resolution, 100 nm/min scan rate, 0.25 s response time and four-fold accumulation of scans. PSwt was diluted to 0.1 mg/ml in either pure water or 20 mM acetic acid/NaOH buffer at pH 5.3, with and without 100 mM NaCl, and loaded into a cell with a 0.1 cm path length. Background spectra were subtracted and the sample spectra converted to units of mean residue ellipticity, MRE, using MRE = MRW ×θ λ/(10×d×c), where MRW is the mean residue weight (molecular weight/number of residues), θ λ is the measured ellipticity at a particular wavelength (degrees), d is the pathlength (0.1 cm) and c is the protein concentration (g/cm^3).
Supplementary file pone.0101339.s006.tif: Figure S6 CD spectra of prosegment. Far-UV CD spectra of PSwt, in ddH2O and in 20 mM acetic acid/NaOH, at pH 5.3, with and without 100 mM NaCl added. […] Anal Biochem 287: 243–251]. (TIF) Click here for additional data file.

refolded pepsin (Rp) [4] = conditions: 1H-15N TROSY NMR, absence of 100 mM NaCl; ref [51]; cited from earlier work
Protocol: Coarse-grain simulations have been used to understand the nature of non-native interactions in small, single-domain proteins lacking stable folding intermediates, [48], [49]. […] It would be challenging, but not impossible, to use similar coarse-grain approaches to model the folding of pepsinogen (370 residues). Using simulation to gain insigh ... || PS binding to Rp was measured in buffer without added 100 mM NaCl in order to obtain more accurate measurements of K d, owing to a larger change in signal in the absence of salt. Additionally, without added 100 mM NaCl it was possible to isolate the PS-Rp binding step from the catalyzed folding step thereby improving the determination of K d. […] However, ^1H-^15N TROSY NMR experiments indicated tha ...

[5] = tested on: pepsin (PS-Rp, PS-TS, PS-Np complexes); test: Φ-value analysis from PS-catalyzed folding and binding constants; set-up: species or system porcine; conditions: for Φ: ratio ΔΔG^‡/ΔΔGPS(Np-Rp); for Φ / ΔΔGPS(Np-Rp) (change in equilibrium stability of PS-Np relative to PS-Rp): ± SD by propagation of errors; for ΔΔGPS(Np-Rp) (change in equilibrium stability of PS-Np relative to PS-Rp): ΔΔGPS-Np minus ΔΔGPS-Rp; for effect on PS-TS stability (in words): ΔΔGPS-TS = ΔΔG^‡ + ΔΔGPS-Rp
Protocol: Calculation of Φ-values from PS-catalyzed folding and binding constants
The change in stability of the folding transition state upon mutation was calculated using [drawing 3] (3) where k f, wt and k f, mut are the PS-catalyzed folding rate constants of the wild-type and mutant PS peptides. The change in equilibrium stability of PS-Np relative to PS-Rp upon mutation of the PS (ΔΔGPS(Np-Rp)) was determined as the difference between the changes in binding energies, using [drawing 4] (4) and [drawing 5] (5)
Here, ΔΔGbind refers to either ΔΔGPS-Rp, determined from K d values, or ΔΔGPS-Np, determined from K i values. The Φ-value for each mutant corresponds to eq 3 divided by eq 5. Additional details are included in the supporting information section (Text S1).
As outlined below, ∆Gbind values are used to calculate ∆∆GPS(Np-Rp), which is the change in the equilibrium free energy difference between PS-Np and PS-Rp upon mutation of the PS (for a diagram of the folding reaction, see Fig S1)
ΔΔGbind can refer to either ∆∆G^PS-Np(wt-mut) or ∆∆G^PS-Rp(wt-mut). Also, we can write ∆Gbind in terms of its components
where ∆GPS, ∆Gpepsin and ∆Gsolvent refer to the change in free energy of the PS, pepsin and the solvent upon PS binding to pepsin, respectively. Combining equations S1 and S2 gives
The contribution of each component to ∆∆Gbind will depend on the particular mutation (e.g., nature of substitution, location within folded structure, solvent accessibility). This is the general case for protein engineering analysis, in which the effects of mutations on changes in equilibrium and activation energies are the result of many individual interaction energy terms, including solvent terms, as previously explained in detail [Fersht AR, Matouschek A, Serrano L (1992) The folding of an enzyme I. Theory of protein engineering analysis of stability and pathway of protein folding. J Mol Biol 224: 771‒782]. Most importantly, there is no requirement to separate ΔΔGbind into its components in order to proceed with analysis as we are interested in the overall change in equilibrium stability of the PS-pepsin complex (∆∆GPS(Np-Rp))
This bimolecular approach to Φ-value analysis of protein folding is qualitatively identical to Φ-value analysis as it was originally applied to the study of enzyme catalysis. As outlined previously [Fersht AR], changes in the free energy of enzyme (E) binding to substrate (S) or product (P) are used to determine the change in free energy difference between E-P and E-S upon mutation, ∆∆G^EP-ES(wt-mut), where
As these are at the scale of global energy terms, equations S4 and S5 are equivalent and PS-catalyzed folding can be treated similarly as enzyme catalysis, in which the PS is the foldase and the denatured and natively folded protein are the substrate and product, respectively. However, protein folding reactions are more complicated to interpret at the level of individual interaction energy terms, which are more numerous [Fersht AR].
Changes in the binding energies between PS-Rp and PS-Np upon PS mutation can then be used to determine Φ-values with the following considerations:
1. Free PS is unstructured (see Fig S6), so Ala mutations are expected to have a negligible effect on the stability and conformation of free PS.
2. Changes in binding and folding upon mutation can be localized to the loss of interactions in the immediate vicinity of the truncation mutation (i.e., larger residue mutated to Ala), and not due to gross conformational changes of the PS or changes in the binding/folding mechanism (consider as strong evidence that all of the mutant PS’s readily catalyze folding to the native, active form).
3. Changes in PS-Rp and PS-Np binding energies upon mutation (∆∆G^PS-Np(wt-mut) and ∆∆G^PS-Rp(wt-mut)) are measured directly, while the change in the PS-TS binding energy (∆∆G^PS-TS(wt-mut)) is the sum of ∆∆G^PS-Rp(wt-mut) and ∆∆G^‡(wt-mut).
4. Φ-values are calculated using […]

secondary structure of free PS by CD ([3]; listed as PS) | Φ [5] | ΔΔGPS(Np-Rp) (change in equilibrium stability of PS-Np relative to PS-Rp) [5] [kcal/mol] | Sequence | generation of protease activity without added NaCl (refolded pepsin (Rp) [1]) | affinity for folding TS [2] | secondary structure of free PS by CD [3] | folding of PS-Rp to native complex without 100 mM NaCl (refolded pepsin (Rp) [4]) | effect on PS-TS stability (in words) [5]
unstructured on its own | – | – | LVKVPLVRKKSLRQNLIKNGKLKDFLKTHKHNPASKYFPEAAAL [WT] | no generation of protease activity was observed | picomolar affinity | A negative band at 198 nm is characteristic of random coil structure | does fold to the native complex | –
– | −1.0±0.3 | -0.93 ± 0.18 | LVKAPLVRKKSLRQNLIKNGKLKDFLKTHKHNPASKYFPEAAAL [V4A] | – | – | – | – | destabilizing to the TS
– | 0 and 0.0±0.1 | 1.26 ± 0.28 | LVKVPLVRKKSLRQNLAKNGKLKDFLKTHKHNPASKYFPEAAAL [I17A] | – | – | – | – | negligible effect on PS-Rp and PS-TS stability
